Measurements published in patent publication US20080200473A1, “Imidazo [1,2-a]Pyridine Compounds, Compositions, Uses and Methods Thereto” (Ferrer Internacional, S.A., priority 2004, published 2008).

Tests used:
mice = assay: In vivo predictive sedation-hypnosis test (inhibition of traveled distance); set-up: species or system mouse; details: male CD1 mice; single equimolecular intraperitoneal doses; traveled distance over 30 min after dosing (first 5 min discarded) versus control
Procedure: In vivo determination of predictive sedative-hypnotic action.
The in vivo effects of these compounds were assessed by a predictive sedation-hypnosis test in mice (D. J. Sanger et al., Eur. J. Pharmacol., 313, 35-42, 1996; and G. Griebel et al., Psychopharmacology, 146, 205-213, 1999).
Groups of 5-8 male CD1 mice, weighing 22-26 g at the time of test, were used. The test compounds were administered in single equimolecular intraperitoneal doses, suspended in 0.25% agar with one drop of Tween in a volume of 10 mL/kg. Control animals received the vehicle alone. Using a Smart System (Panlab, S. L., Spain) the traveled distance in cm is recorded for each mouse at 5-min intervals during a period of 30 minutes after dosing. The inhibition percentage of traveled distance of treated animals versus control animals (the first 5 min were discarded) was calculated.

α2-GABAA receptor = assay: Ligand-binding assay, competitive with radiolabeled flumazenil, spinal cord membranes; details: Affinity for α2-GABAA receptor, rat spinal cord membranes, radiolabeled flumazenil 1 nM; for % Inhibition 10^−5M: 10^-5M test compound; for % Inhibition 10^−7M: 10^-7M test compound
Procedure: (§1) Ligand-binding assays. Determination of the affinity of test compounds for α1- and α2-GABAA receptor.
(§2) Male Sprague-Dawley rats weighing 200-250 g at the time of experiment were used. After decapitation of the animal, the cerebellum (tissue that mostly contains α1-GABAA receptor) and spinal cord (tissue that mostly contains α2-GABAA receptor) were removed. The membranes were prepared according to the method by J. Lameh et al. (Prog. Neuro-Psychopharmacol. Biol. Psychiatry, 24, 979-991, 2000) and H. Noguchi et al. (Eur. J. Pharm., 434, 21-28, 2002). Once the tissues weighed, they were suspended in 50 mM Tris.HCl (pH 7.4), 1:40 (w/v), or sucrose 0.32 M in the case of spinal cord, homogenized and then centrifuged at 20,000 g for 10 min at 7° C. twice. The resulting pellet was resuspended under the same conditions and centrifuged again. The pellet was finally resuspended on a minimum volume and kept at −80° C. overnight. On the next day, the process was repeated until the final pellet was resuspended at a ratio of 1:10 (w/v) in the case of cerebellum and at a ratio of 1:5 (w/v) in the case of spinal cord.
(§3) Affinity was determined by competitive tests using radiolabeled flumazenil as ligand. The tests were performed according to the methods described by S. Arbilla et al. (Eur. J. Pharmacol., 130, 257-263, 1986); and Y. Wu et al. (Eur. J. Pharmacol., 278, 125-132, 1995) using 96-well microtiter plates. The membranes containing the study receptors, flumazenil (radiolabeling at a final concentration of 1 nM) and ascending concentrations of test compounds (in a total volume of 230 μL in 50 mM [ph 7.4] Tris.HCl buffer) were incubated. Simultaneously, the membranes were only incubated with the radiolabeled flumazenil (total binding, 100%) and in the presence of an elevated concentration of unradiolabeled flumazenil (non-specific binding, % estimation of radiolabeled ligand). The reactions started on adding the radiolabeled ligand followed by incubation for 60 minutes at 4° C. At the end of the incubation period, 200 μL of reaction were transferred to a multiscreen plate (Millipore) and filtered using a vacuum manifold and then washed three times with cold test buffer. The multiscreen plates were equipped with a GF/B filter that retained the membranes containing the receptors and the radiolabeled ligand which has been bound to the receptors. After washing, the plates were left till dry. Once dried, scintillation liquid was added and left under stirring overnight. The next day the plates were counted using a Perkin-Elmer Microbeta scintillation counter.
(§4) For analysis of the results the percentage of specific binding for every concentration of test compound was calculated as follows:
(§5) % specific binding=(X−N/T−N)×100
(§6) where, X: amount of bound ligand for every concentration of compound. T: total binding, maximum amount bound to the radiolabeled ligand. N: non-specific binding, amount of radiolabeled ligand bound in a non-specific way irrespective of the receptor used.
(§7) Every concentrations of compound were tested in triplicate and their mean values were used to determine the experimental values of % specific binding versus the concentration of compound. Affinity data are expressed as % inhibition at 10^-5M and 10^-7M concentrations.

α1-GABAA receptor = assay: Ligand-binding assay, competitive with radiolabeled flumazenil, cerebellum membranes; details: Affinity for α1-GABAA receptor, rat cerebellum membranes, radiolabeled flumazenil 1 nM; for % Inhibition 10^−5M: 10^-5M test compound; for % Inhibition 10^−7M: 10^-7M test compound
Procedure: as §1, §2, §3, §4, §5, §6, §7

SMILES | % Inhibition Motor Activity (mice) | % Inhibition 10^−5M (α2-GABAA receptor) | % Inhibition 10^−7M (α2-GABAA receptor) | % Inhibition 10^−5M (α1-GABAA receptor) | % Inhibition 10^−7M (α1-GABAA receptor)
Cc1ccc(-c2nc3ccc(C)cn3c2CNC(=O)c2ccc(N(C)C)cc2)cc1 [Example 3, 4-Dimethylamino-N-(6-methyl-2-p-tolyl-imidazo[1,2-a]pyridin-3-ylmethyl)-benzamide] | 45.59% | 17.4% | 0.0% | 73.9% | 21.4%
Cc1ccc(-c2nc3ccc(C)cn3c2CNC(=O)c2ccco2)cc1 [Example 4, Furan-2-carboxylic acid (6-methyl-2-p-tolyl-imidazo[1,2-a]pyridin-3-ylmethyl)-amide] | 73.28% | 82.9% | 0.0% | 97.4% | 19.4%
Cc1ccc(-c2nc3ccc(C)cn3c2CNC(=O)c2ccccn2)cc1 [Example 5, Pyridine-2-carboxylic acid (6-methyl-2-p-tolyl-imidazo[1,2-a]pyridin-3-ylmethyl)-amide] | 90.40% | 95.3% | 28.4% | 99.8% | 75.5%
Cc1ccc(-c2nc3ccc(C)cn3c2CNC(=O)c2ccc(C)n2C)cc1 [Example 6, 1,5-Dimethyl-1H-pyrrole-2-carboxylic acid (6-methyl-2-p-tolyl-imidazo[1,2-a]pyridin-3-ylmethyl)-amide] | 78.09% | 64.4% | 0.0% | 96.1% | 22.5%
Cc1ccc(-c2nc3ccc(C)cn3c2CNC(=O)c2ccncc2)cc1 [Example 7, N-(6-Methyl-2-p-tolyl-imidazo[1,2-a]pyridin-3-ylmethyl)-isonicotinamide] | 72.45% | 81.3% | 0.0% | 98.0% | 36.5%
COc1ccc(C(=O)NCc2c(-c3ccc(C)cc3)nc3ccc(C)cn23)cc1 [Example 11, 4-Methoxy-N-(6-methyl-2-p-tolyl-imidazo[1,2-a]pyridin-3-ylmethyl)-benzamide] | 55.43% | 6.5% | 0.0% | 70.7% | 29.0%
CC(=O)c1ccc(C(=O)NCc2c(-c3ccc(C)cc3)nc3ccc(C)cn23)cc1 [Example 12, 4-Acetyl-N-(6-methyl-2-p-tolyl-imidazo[1,2-a]pyridin-3-ylmethyl)-benzamide] | 56.84% | 19.0% | 0.0% | 73.7% | 18.6%
Cc1ccc(-c2nc3ccc(C)cn3c2CNC(=O)C2CC2)cc1 [Example 13, Cyclopropanecarboxylic acid (6-methyl-2-p-tolyl-imidazo[1,2-a]pyridin-3-ylmethyl)-amide] | 90.36% | 67.8% | 0.0% | 97.6% | 53.8%
Cc1ccc(-c2nc3ccc(C)cn3c2CNC(=O)c2ccc([N+](=O)[O-])o2)cc1 [Example 14, 5-Nitro-furan-2-carboxylic acid (6-methyl-2-p-tolyl-imidazo[1,2-a]pyridin-3-ylmethyl)-amide] | 89.82% | 92.2% | 26.2% | 99.4% | 51.4%
Cc1ccc(-c2nc3ccc(C)cn3c2CNC(=O)c2occc2C)cc1 [Example 15, 3-Methyl-furan-2-carboxylic acid (6-methyl-2-p-tolyl-imidazo[1,2-a]pyridin-3-ylmethyl)-amide] | 80.12% | 41.6% | 0.0% | 74.5% | 0.0%
Cc1ccc(-c2nc3ccc(C)cn3c2CNC(=O)c2sccc2C)cc1 [Example 16, 3-Methyl-thiophene-2-carboxylic acid (6-methyl-2-p-tolyl-imidazo[1,2-a]pyridin-3-ylmethyl)-amide] | 82.38% | 52.9% | 0.0% | 95.4% | 2.2%
Cc1ccc(-c2nc3ccc(C)cn3c2CNC(=O)c2ccnc(Cl)c2)cc1 [Example 17, 2-Chloro-N-(6-methyl-2-p-tolyl-imidazo[1,2-a]pyridin-3-ylmethyl)-isonicotinamide] | 54.40% | 24.4% | 0.0% | 94.5% | 0.0%
Cc1ccc(-c2nc3ccc(C)cn3c2CNC(=O)/C=C/c2ccco2)cc1 [Example 80, 3-Furan-2-yl-N-(6-methyl-2-p-tolyl-imidazo[1,2-a]pyridin-3-ylmethyl)-acrylamide] | 61.89% | – | – | 88.9% | 0.0%
Cc1ccc(-c2nc3ccc(C)cn3c2CNC(=O)c2ccsc2)cc1 [Example 82, Thiophene-3-carboxylic acid (6-methyl-2-p-tolyl-imidazo[1,2-a]pyridin-3-ylmethyl)-amide] | 61.93% | – | – | 98.7% | 33.0%
Cc1ccc(-c2nc3ccc(C)cn3c2CNC(=O)c2cc(C)n(C3CC3)c2C)cc1 [Example 84, 1-Cyclopropyl-2,5-dimethyl-1H-pyrrole-3-carboxylic acid (6-methyl-2-p-tolyl-imidazo[1,2-a]pyridin-3-ylmethyl)-amide] | 36.32% | – | – | – | –
Cc1ccc(-c2nc3ccc(C)cn3c2CNC(=O)c2cc(F)c(Cl)cc2Cl)cc1 [Example 87, 2,4-Dichloro-5-fluoro-N-(6-methyl-2-p-tolyl-imidazo[1,2-a]pyridin-3-ylmethyl)-benzamide] | 48.13% | – | – | – | –
Cc1ccc(-c2nc3ccc(C)cn3c2CNC(=O)c2csc([N+](=O)[O-])c2)cc1 [Example 88, 5-Nitro-thiophene-3-carboxylic acid (6-methyl-2-p-tolyl-imidazo[1,2-a]pyridin-3-ylmethyl)-amide] | 51.87% | – | – | 96.2% | 0.0%
Cc1ccc(-c2nc3ccc(C)cn3c2CN(C)C(=O)c2cnccn2)cc1 [Example 96, Pyrazine-2-carboxylic acid methyl-(6-methyl-2-p-tolyl-imidazo[1,2-a]pyridin-3-ylmethyl)-amide] | 44.04% | – | – | 99.9% | 80.5%
Cc1ccc(-c2nc3ccc(C)cn3c2CN(C)C(=O)c2cnoc2C)cc1 [Example 99, 5-Methyl-isoxazole-4-carboxylic acid methyl-(6-methyl-2-p-tolyl-imidazo[1,2-a]pyridin-3-ylmethyl)-amide] | 13.33% | – | – | 99.2% | 52.5%
